In PubChem BioAssay AID1918949 (Molecular Pharmacology Branch, DTP, NCI, 2023):

Tested on: K24384-001-R-PDC complex spheroid viability
Assay: Anticancer human tumor K24384-001-R-PDC patient-derived pancreatic adenocarcinoma cell line growth inhibition
Conditions: for IC50: curve of first compound; for viability, T/C: stronger effect = lower value
Summary of the method: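 Drug combinations with the LSD1 inhibitor iadademstat tested on tumor cells co-cultured as spheroids with endothelial cells and mesenchymal stem cells. Concentrations descended in half-log increments from clinical Cmax or 10 microM.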
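Also: spheroids exposed to agents for seven days before luminescence viability reading.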
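For viability, T/C in this document: 100% = DMSO vehicle control viability.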

## Nc1ccn(C2OC(CO)C(O)C2(F)F)c(=O)n1 (stereo not given) + NC1CCC(NC2CC2c2ccccc2)CC1
Second compound 0.1 µM
  IC50: 57.9 nM
Second compound 0.316 µM
  IC50: 49.6 nM
Second compound 1 µM
  IC50: 44.5 nM
Second compound 3.16 µM
  IC50: 87.6 nM
Second compound 10 µM
  IC50: 53.2 nM
Second compound 0.1 µM, first compound 0.000949 µM
  viability, T/C: 77.4%
Second compound 0.1 µM, first compound 0.003 µM
  viability, T/C: 68.3%
Second compound 0.1 µM, first compound 0.00949 µM
  viability, T/C: 67.8%
Second compound 0.1 µM, first compound 0.03 µM
  viability, T/C: 53.5%
Second compound 0.1 µM, first compound 0.0949 µM
  viability, T/C: 46.8%
Second compound 0.1 µM, first compound 0.3 µM
  viability, T/C: 33%
Second compound 0.316 µM, first compound 0.000949 µM
  viability, T/C: 73.9%
Second compound 0.316 µM, first compound 0.003 µM
  viability, T/C: 72%
Second compound 0.316 µM, first compound 0.00949 µM
  viability, T/C: 67.3%
Second compound 0.316 µM, first compound 0.03 µM
  viability, T/C: 52.9%
Second compound 0.316 µM, first compound 0.0949 µM
  viability, T/C: 46%
Second compound 0.316 µM, first compound 0.3 µM
  viability, T/C: 39.5%
Second compound 1 µM, first compound 0.000949 µM
  viability, T/C: 85.9%
Second compound 1 µM, first compound 0.003 µM
  viability, T/C: 68.1%
Second compound 1 µM, first compound 0.00949 µM
  viability, T/C: 62.4%
Second compound 1 µM, first compound 0.03 µM
  viability, T/C: 50.4%
Second compound 1 µM, first compound 0.0949 µM
  viability, T/C: 48%
Second compound 1 µM, first compound 0.3 µM
  viability, T/C: 41.9%
Second compound 3.16 µM, first compound 0.000949 µM
  viability, T/C: 84.3%
Second compound 3.16 µM, first compound 0.003 µM
  viability, T/C: 77.5%
Second compound 3.16 µM, first compound 0.00949 µM
  viability, T/C: 70.4%
Second compound 3.16 µM, first compound 0.03 µM
  viability, T/C: 59.9%
Second compound 3.16 µM, first compound 0.0949 µM
  viability, T/C: 48.7%
Second compound 3.16 µM, first compound 0.3 µM
  viability, T/C: 41.3%
Second compound 10 µM, first compound 0.000949 µM
  viability, T/C: 66.7%
Second compound 10 µM, first compound 0.003 µM
  viability, T/C: 68.5%
Second compound 10 µM, first compound 0.00949 µM
  viability, T/C: 69.3%
Second compound 10 µM, first compound 0.03 µM
  viability, T/C: 54.6%
Second compound 10 µM, first compound 0.0949 µM
  viability, T/C: 45.8%
Second compound 10 µM, first compound 0.3 µM
  viability, T/C: 39.2%

## O=C(c1cc(Cc2n[nH]c(=O)c3ccccc23)ccc1F)N1CCN(C(=O)C2CC2)CC1 + NC1CCC(NC2CC2c2ccccc2)CC1
Second compound 0.1 µM
  IC50: > 10000 nM
Second compound 0.316 µM
  IC50: > 10000 nM
Second compound 1 µM
  IC50: > 10000 nM
Second compound 3.16 µM
  IC50: > 10000 nM
Second compound 10 µM
  IC50: > 10000 nM
Second compound 0.1 µM, first compound 0.0316 µM
  viability, T/C: 75.1%
Second compound 0.1 µM, first compound 0.1 µM
  viability, T/C: 79.7%
Second compound 0.1 µM, first compound 0.316 µM
  viability, T/C: 81.6%
Second compound 0.1 µM, first compound 1 µM
  viability, T/C: 86.5%
Second compound 0.1 µM, first compound 3.16 µM
  viability, T/C: 69.3%
Second compound 0.1 µM, first compound 10 µM
  viability, T/C: 91.8%
Second compound 0.316 µM, first compound 0.0316 µM
  viability, T/C: 74.6%
Second compound 0.316 µM, first compound 0.1 µM
  viability, T/C: 74.8%
Second compound 0.316 µM, first compound 0.316 µM
  viability, T/C: 79.5%
Second compound 0.316 µM, first compound 1 µM
  viability, T/C: 71.2%
Second compound 0.316 µM, first compound 3.16 µM
  viability, T/C: 79.4%
Second compound 0.316 µM, first compound 10 µM
  viability, T/C: 77.8%
Second compound 1 µM, first compound 0.0316 µM
  viability, T/C: 78.1%
Second compound 1 µM, first compound 0.1 µM
  viability, T/C: 75.8%
Second compound 1 µM, first compound 0.316 µM
  viability, T/C: 75.3%
Second compound 1 µM, first compound 1 µM
  viability, T/C: 72.4%
Second compound 1 µM, first compound 3.16 µM
  viability, T/C: 75.2%
Second compound 1 µM, first compound 10 µM
  viability, T/C: 81%
Second compound 3.16 µM, first compound 0.0316 µM
  viability, T/C: 81.9%
Second compound 3.16 µM, first compound 0.1 µM
  viability, T/C: 81.8%
Second compound 3.16 µM, first compound 0.316 µM
  viability, T/C: 77.8%
Second compound 3.16 µM, first compound 1 µM
  viability, T/C: 75.6%
Second compound 3.16 µM, first compound 3.16 µM
  viability, T/C: 69.7%
Second compound 3.16 µM, first compound 10 µM
  viability, T/C: 71.1%
Second compound 10 µM, first compound 0.0316 µM
  viability, T/C: 75.2%
Second compound 10 µM, first compound 0.1 µM
  viability, T/C: 101%
Second compound 10 µM, first compound 0.316 µM
  viability, T/C: 68.3%
Second compound 10 µM, first compound 1 µM
  viability, T/C: 73.4%
Second compound 10 µM, first compound 3.16 µM
  viability, T/C: 65%
Second compound 10 µM, first compound 10 µM
  viability, T/C: 68.8%
